Experimental data published in patent publication US10077264B2, “Derivatives and methods of treating hepatitis B infections” (Novira Therapeutics, Inc., priority 2014, dated 2018).
Like-named read-outs stand apart in the source and are kept apart here.

System: HBV replication in HepG2.2.15 cells
Test: HBV replication inhibition assay (BDNA assay)
Type: cell-based
Details: Hepatitis B virus; for EC50: read-out: Activity in BDNA-assay (EC50); for inhibition at 10 µM: read-out: Activity in BDNA-assay (activity at 10 μM)
Excerpt: HBV replication inhibition by the compounds of this invention could be determined in cells infected or transfected with HBV, or cells with stably integrated HBV, such as HepG2.2.15 cells (Sells et al. 1987). In this example, HepG2.2.15 cells were maintained in cell culture medium containing 10% fetal bovine serum (FBS), Geneticin, L-glutamine, penicillin and streptomycin. HepG2.2.15 cells could be seeded in 96-well plates at a density of 40,000 cells/well and be treated with serially diluted compounds at a final DMSO concentration of 0.5% either alone or in combination by adding drugs in a checker box format. Cells were incubated with compounds for three days, after which medium was removed and fresh medium containing compounds was added to cells and incubated for another three days. At day 6, supernatant was removed and treated with DNase at 37° C. for 60 minutes, followed by enzyme inactivation at 75° C. for 15 minutes. Encapsidated HBV DNA was released from the virions and covalently linked HBV polymerase by incubating in lysis buffer (Affymetrix QS0010) containing […] proteinase K at 50° C. for 40 minutes. HBV DNA was denatured by addition of 0.2 M NaOH and detected using a branched DNA (BDNA) QuantiGene assay kit according to manufacturer recommendation (Affymetrix). HBV DNA levels could also be quantified using qPCR, based on amplification of encapsidated HBV DNA extraction with QuickExtraction Solution (Epicentre Biotechnologies) and amplification of HBV DNA using HBV specific PCR probes that can hybridize to HBV DNA and a fluorescently labeled probe for quantitation. In addition, cell viability of HepG2.2.15 cells incubated with test compounds alone or in combination was determined by using CellTitre-Glo reagent according to the manufacturer protocol (Promega). The mean background signal from wells containing only culture medium was subtracted from all other samples, and percent inhibition at each compound concentration was calculated by normalizing to signals from HepG2.2.15 cells treated with 0.5% DMSO using equation E1. % inhibition=(DMSOave−Xi)/DMSOave×100% E1: • where DMSOave is the mean signal calculated from the wells that were treated with DMSO control (0% inhibition control) and Xi is the signal measured from the individual wells. EC50 values, effective concentrations that achieved 50% inhibitory effect, were determined by non-linear fitting using Graphpad Prism software (San Diego, Calif.) and equation E2 Y=Ymin+(Ymax−Ymin)/(1+10(Log EC50−X)×HillSlope) E2: • where Y represents percent inhibition values and X represents the logarithm of compound concentrations.
Selected compounds of the invention were assayed in the HBV replication assay (BDNA assay), as described above and a representative group of these active compounds is shown in Table 3.

[1] = HepG2.2.15, 144 h, HepG2.2.15 cells, 6 days, encapsidated HBV DNA in supernatant
[2] = 144 h, HepG2.2.15 cells, 10 μM, 6 days, encapsidated HBV DNA in supernatant

Row | SMILES | EC50 [1] [nM] | further results
1 | O=C(Nc1ccc(F)c(Cl)c1F)N1CCc2[nH]nc(-c3ccccc3)c2C1 [Compound 205] | 100 to 500 | –
2 | O=C(Nc1cc(Cl)ccc1F)N1CCc2[nH]nc(-c3ccccc3)c2C1 [Compound 214] | – | inhibition at 10 µM [2]: > 50%
3 | O=C(Nc1cnc(Cl)c(Cl)c1)N1CCc2[nH]nc(-c3ccccc3)c2C1 [Compound 226] | – | inhibition at 10 µM [2]: > 50%
4 | O=C(Nc1cccc(Cl)c1)N1CCc2[nH]nc(-c3ccccc3F)c2C1 [Compound 276, N-(3-chlorophenyl)-3-(2-fluorophenyl)-1,4,6,7-tetrahydropyrazolo[4,3-c]pyridine-5-carboxamide] | 100 to 500 | –
5 | O=C(Nc1cccc(Cl)c1)N1CCc2[nH]nc(-c3cccc(F)c3)c2C1 [Compound 277, N-(3-chlorophenyl)-3-(3-fluorophenyl)-1,4,6,7-tetrahydropyrazolo[4,3-c]pyridine-5-carboxamide] | – | inhibition at 10 µM [2]: > 50%
6 | O=C(Nc1cccc(Cl)c1)N1CCc2[nH]nc(-c3ccc(F)cc3)c2C1 [Compound 278, N-(3-chlorophenyl)-3-(4-fluorophenyl)-1,4,6,7-tetrahydropyrazolo[4,3-c]pyridine-5-carboxamide] | 100 to 500 | –
7 | Cc1ccccc1-c1n[nH]c2c1CN(C(=O)Nc1cccc(Cl)c1)CC2 [Compound 279, N-(3-chlorophenyl)-3-(o-tolyl)-1,4,6,7-tetrahydropyrazolo[4,3-c]pyridine-5-carboxamide] | 100 to 500 | –
8 | Cc1cccc(-c2n[nH]c3c2CN(C(=O)Nc2cccc(Cl)c2)CC3)c1 [Compound 280, N-(3-chlorophenyl)-3-(m-tolyl)-1,4,6,7-tetrahydropyrazolo[4,3-c]pyridine-5-carboxamide] | 100 to 500 | –
9 | Cc1ccc(-c2n[nH]c3c2CN(C(=O)Nc2cccc(Cl)c2)CC3)cc1 [Compound 281, N-(3-chlorophenyl)-3-(p-tolyl)-1,4,6,7-tetrahydropyrazolo[4,3-c]pyridine-5-carboxamide] | – | inhibition at 10 µM [2]: > 50%
10 | O=C(Nc1cccc(Cl)c1)N1CCc2[nH]nc(-c3cccnc3)c2C1 [Compound 286, N-(3-chlorophenyl)-3-(3-pyridyl)-1,4,6,7-tetrahydropyrazolo[4,3-c]pyridine-5-carboxamide] | 500 to 1000 | –
11 | O=C(Nc1cccc(Cl)c1)N1CCc2[nH]nc(-c3ccncc3)c2C1 [Compound 287] | 100 to 500 | –
12 | O=C(Nc1cccc(Cl)c1)N1CCc2[nH]nc(-c3ncccn3)c2C1 [Compound 289, N-(3-chlorophenyl)-3-pyrimidin-2-yl-1,4,6,7-tetrahydropyrazolo[4,3-c]pyridine-5-carboxamide] | 10 to 100 | –
13 | O=C(Nc1cccc(Cl)c1)N1CCc2[nH]nc(-c3cccnn3)c2C1 [Compound 290] | 10 to 100 | –
14 | O=C(Nc1cccc(Cl)c1)N1CCc2[nH]nc(-c3cncnc3)c2C1 [Compound 291, N-(3-chlorophenyl)-3-pyrimidin-5-yl-1,4,6,7-tetrahydropyrazolo[4,3-c]pyridine-5-carboxamide] | 100 to 500 | –
15 | COc1ccc(-c2n[nH]c3c2CN(C(=O)Nc2cccc(Cl)c2)CC3)cc1 [Compound 325, N-(3-chlorophenyl)-3-(4-methoxyphenyl)-1,4,6,7-tetrahydropyrazolo[4,3-c]pyridine-5-carboxamide] | – | inhibition at 10 µM (HepG2.2.15, 144 h): > 50%
16 | COc1cccc(-c2n[nH]c3c2CN(C(=O)Nc2cccc(Cl)c2)CC3)c1 [Compound 326, N-(3-chlorophenyl)-3-(3-methoxyphenyl)-1,4,6,7-tetrahydropyrazolo[4,3-c]pyridine-5-carboxamide] | 100 to 500 | –
17 | COc1ccccc1-c1n[nH]c2c1CN(C(=O)Nc1cccc(Cl)c1)CC2 [Compound 327, N-(3-chlorophenyl)-3-(2-methoxyphenyl)-1,4,6,7-tetrahydropyrazolo[4,3-c]pyridine-5-carboxamide] | 100 to 500 | –
18 | CC1CCCC(NC(=O)N2CCc3[nH]nc(-c4ccccc4)c3C2)C1 (stereo not drawn) [Compound 436] | 500 to 1000 | –
19 | O=C(Nc1cccc(Cl)c1)N1CCc2[nH]nc(-c3cccnc3F)c2C1 [Compound 472, N-(3-chlorophenyl)-3-(2-fluoro-3-pyridyl)-1,4,6,7-tetrahydropyrazolo[4,3-c]pyridine-5-carboxamide] | 100 to 500 | –
20 | O=C(Nc1cccc(Cl)c1)N1CCc2[nH]nc(-c3ccc(F)nc3)c2C1 [Compound 473, N-(3-chlorophenyl)-3-(6-fluoro-3-pyridyl)-1,4,6,7-tetrahydropyrazolo[4,3-c]pyridine-5-carboxamide] | 500 to 1000 | –
21 | Cn1cc(-c2n[nH]c3c2CN(C(=O)Nc2cccc(Cl)c2)CC3)cn1 [Compound 495, N-(3-chlorophenyl)-3-(1-methylpyrazol-4-yl)-1,4,6,7-tetrahydropyrazolo[4,3-c]pyridine-5-carboxamide] | 1000 to 1500 | –
22 | Cn1nccc1-c1n[nH]c2c1CN(C(=O)Nc1cccc(Cl)c1)CC2 [Compound 496] | 100 to 500 | –
23 | O=C(Nc1cccc(Cl)c1)N1CCc2[nH]nc(-c3ccn[nH]3)c2C1 [Compound 497] | 100 to 500 | –
24 | O=C(Nc1cccc(Cl)c1)N1CCc2ncn(-c3ccccc3)c2C1 [Compound 542, N-(3-chlorophenyl)-3-phenyl-6,7-dihydro-4H-imidazo[4,5-c]pyridine-5-carboxamide] | 500 to 1000 | –
25 | Cn1ccc(-c2n[nH]c3c2CN(C(=O)Nc2cccc(Cl)c2)CC3)n1 [Compound 555] | 100 to 500 | –
26 | O=C(Nc1cccc(C2CC2)c1)N1CCc2[nH]nc(-c3ccccc3)c2C1 [Compound 556] | 100 to 500 | –
27 | N#Cc1cccc(NC(=O)N2CCc3[nH]nc(-c4ccccc4)c3C2)c1F [Compound 559] | 10 to 100 | –
28 | N#Cc1cc(NC(=O)N2CCc3[nH]nc(-c4ccccc4)c3C2)ccc1F [Compound 560] | 10 to 100 | –
29 | O=C(Nc1cccc(Cl)c1)N1CCc2[nH]nc(-c3ccsc3)c2C1 [Compound 562, N-(3-chlorophenyl)-3-(3-thienyl)-1,4,6,7-tetrahydropyrazolo[4,3-c]pyridine-5-carboxamide] | 10 to 100 | –
30 | O=C(Nc1cccc(Cl)c1)N1CCc2c(ncn2-c2ccccc2)C1 [Compound 583, N-(3-chlorophenyl)-1-phenyl-6,7-dihydro-4H-imidazo[4,5-c]pyridine-5-carboxamide] | 1500 to 5000 | –
